Data published in US20260209171A1, “CATIONIC LIPIDS AND MANUFACTURING METHOD THEREFOR” (SAMYANG HOLDINGS CORPORATION, priority 2022, published 2026).

What was measured:
[1] = Particle characteristics of the prepared formulation by particle size analyzer (Dynamic Light Scattering, DLS); format: physicochemical; details: mRNA formulation, compound:DOPE:Cholesterol:DMG-PEG=50:10:38.5:1.5, N/P ratio 6; for PDI (PI) / Z-average: DLS
Experimental: (§1) According to the following table 1, the materials required for preparing the formulation were dissolved in each dilution solvent and prepared at the required concentration. When dissolving, the materials were kept at room temperature and then the solvent was added to dissolve them.
(§2) The required amounts of the raw materials were mixed in order to meet the N/P ratio (amine group of lipid/phosphate group of mRNA) of 6 and each compound of formulas A to G:DOPE:Cholesterol:DMG-PEG=50:10:38.5:1.5. Ethanol was added to the ethanol layer so that the molecular total of all raw materials was within 12.5 mM, and the aqueous phase and ethanol phase were mixed maintaining a volume ratio of 3:1. After the mixing, to reduce the total ethanol content, buffer exchange was performed as follows: The mixture solution was concentrated by centrifugation at 4,000 rpm using an Amicon-Ultra tube filter (Merk Millipore, UFC505096 or UFC805024, pore size: 50K, volume: 15 mL), then diluted with PBS and centrifuged to concentrate. This process was repeated to exchange the buffer.
(§3) The more concrete procedure is as follows: • 1) Two autoclaved tubes were prepared (tubes (A) and (B)). • 2) In tube (A), each compound of formulas A to G, DOPE, cholesterol and DMG-PEG in molar quantities calculated according to the experimental conditions were sequentially added and mixed by vortexing. • 3) In the ethanol phase, when necessary, ethanol was added so that the molecular total of all raw materials was within 12.5 mM. • 4) In tube (B), mRNA and 20 mM sodium acetate buffer (pH 4.6) were mixed. At that time, the ratio was calculated and added so that the aqueous phase was total three times the amount of the ethanol phase. • 5) Mixing of Tube (A) and Tube (B) was performed using a Microfluidics (Ignite, Precision Nanosystem) device. Microfluidics operating conditions were FRR (Flow Rate Ratio) of C:R=3:1 and […] (Total Flow Rate) of 12 mL/min. • 6) The resulting mixture from step 5) was centrifuged at 4,000 rpm using an Amicon-Ultra tube filter (50K), and the process of concentration and dilution was repeated to remove excess ethanol, and then concentrated to a final x mg/ml (theoretical concentration).
(§4) • 1) For the prepared formulation, particle characteristics were confirmed using a particle size analyzer (Dynamic Light Scattering, DLS), and the results are shown in Table 2 below. • 2) For the prepared formulation, mRNA encapsulation efficiency was confirmed through Ribo-green assay, and the results are shown in Table 1 below.

[2] = mRNA encapsulation efficiency by Ribo-green assay; format: physicochemical; details: mRNA formulation, compound:DOPE:Cholesterol:DMG-PEG=50:10:38.5:1.5, N/P ratio 6
Experimental: as §1, §2, §3, §4

SMILES	Zeta-potential [1] [mV]	PDI (PI) [1]	Z-average [1] [nm]	Encapsulation efficiency [2] [%]
CCCCCCCCC(OC(=O)CCCCCCCN(C)CCCCCCCC(=O)OC(CCCCCCCC)C1CC1)C1CC1 (centres unmarked) [Formula A]	−10.96 ± 2.69	0.09 ± 0.01	135.0 ± 0.46	–
CCCCCCC(OC(=O)CCCCCN(C)CCCCCC(=O)OC(CCCCCC)C1CC1)C1CC1 (centres unmarked) [Formula B]	−4.30 ± 3.03	0.12 ± 0.03	183.3 ± 2.86	–
CCCCCCCCCCC(OC(=O)CCCCCCCN(C)CCCCCCCC(=O)OC(CCCCCCCCCC)C1CC1)C1CC1 (centres unmarked) [Formula C]	−7.57 ± 4.12	0.12 ± 0.00	120.0 ± 2.38	95.4 ± 0.2
CCCCCCCCC(OC(=O)CCCCCCCN(C)CCCCCCCC(=O)OC(CCCCCCCC)C1CCCCC1)C1CCCCC1 (centres unmarked) [Formula D]	−2.37 ± 0.39	0.07 ± 0.04	154.6 ± 2.75	97.6 ± 0.2
CCCCCCCCC(OC(=O)CCCCCCCN(CCO)CCCCCCCC(=O)OC(CCCCCCCC)C1CC1)C1CC1 (centres unmarked) [Formula E]	−4.69 ± 1.56	0.10 ± 0.04	127.4 ± 0.52	98.4 ± 0.5
CCCCCCCCC(C(=O)OCCCCCCCN(C)CCCCCCCOC(=O)C(CCCCCCCC)C1CC1)C1CC1 (centres unmarked) [Formula F]	−6.24 ± 3.13	0.12 ± 0.02	131.5 ± 0.12	91.1 ± 0.2
CCCCCCC(OC(=O)CCCCCCCN(C)CCCCCCCC(=O)OC(CCCCCC)C1CC1)C1CC1 (centres unmarked) [Formula G]	−6.93 ± 1.48	0.17 ± 0.02	194.9 ± 3.59	92.1 ± 0.1
